The results in this text go back to ChEMBL document CHEMBL4680211, “Synthesis and structure-activity relationship study of water-soluble carbazole sulfonamide derivatives as new anticancer agents” (Eur J Med Chem, 2020).

SMILES strings stand for the structures. A value given as a limit tells only on which side of the number the result lay.

In one series the test system is HepG2. In words: Antiproliferative activity against human HepG2 cells measured after 48 hrs by SRB assay. The series is classed as functional, cell-based. (The SRB assay estimates cell density from bound dye.)
For the next series, the system named is Bel-7402. In words: Antiproliferative activity against human Bel-7402 cells measured after 48 hrs by SRB assay. The series is classed as functional, cell-based.
The next series deals with MCF7. In words: Antiproliferative activity against human MCF7 cells measured after 48 hrs by SRB assay. The series is classed as functional, cell-based.
The nature of series [1]: Aqueous solubility of compound in water at pH 7.4 incubated at 20 degC by HPLC-UV analysis. The format is physicochemical.

For `COc1ccc(N(CCOP(=O)(O)O)S(=O)(=O)c2ccc3c(c2)c2ccccc2n3C)c(OC)n1`, the IC50 came out at 740 nM with HepG2 (hepg2), 1.15 µM in the series on Bel-7402 (bel-7402) and 1.01 µM in the series with MCF7 (mcf7).
In the case of `COc1ccc(NS(=O)(=O)c2ccc3c(c2)c2ccc(OP(=O)([O-])[O-])cc2n3C)c(OC)n1.Cl.[Na+].[Na+]`, the solubility in series [1] was > 30 mg/mL.
As for `COc1ccc(N(CCOC(=O)CN2CCN(C)CC2)S(=O)(=O)c2ccc3c(c2)c2ccccc2n3C)c(OC)n1.Cl`, the solubility in series [1] is > 30 mg/mL.
The same measure, in the same setting: under `COc1ccc(N(CCN(C)C)S(=O)(=O)c2ccc3c(c2)c2ccccc2n3C)c(OC)n1.Cl` stands 29.1 mg/mL.
Take `COc1ccc(N(CCN2CCSCC2)S(=O)(=O)c2ccc3c(c2)c2ccccc2n3C)c(OC)n1`: the IC50 was 1360 nM in the series with HepG2 (Homo sapiens, HepG2, 48 h); 4.1 µM in the series with Bel-7402 (Homo sapiens, Bel-7402, 48 h); 4.61 µM with MCF7 (Homo sapiens, MCF7, 48 h).
Compound `COc1ccc(N(CCCn2ccnc2)S(=O)(=O)c2ccc3c(c2)c2ccccc2n3C)c(OC)n1.Cl` gave a solubility in series [1] of 18.4 mg/mL.
Take `COc1ccc(/C=C\c2cc(OC)c(OC)c(OC)c2)cc1O` [COMBRETASTATIN A4]: the IC50 in the series on HepG2 (Homo sapiens, HepG2, 48 h) was determined as 2 nM; in the series on Bel-7402 (Homo sapiens, Bel-7402, 48 h), 0.084 µM; in the series with MCF7 (Homo sapiens, MCF7, 48 h), 0.003 µM.
In the case of `COc1ccc(N(CCCN2CCC3(CCN(C)CC3)C2)S(=O)(=O)c2ccc3c(c2)c2ccccc2n3C)c(OC)n1`, the IC50 with HepG2 (Homo sapiens, HepG2, 48 h) amounted to 3590 nM; with Bel-7402 (Homo sapiens, Bel-7402, 48 h), 6.21 µM; in the series on MCF7 (Homo sapiens, MCF7, 48 h), 21.3 µM.
For the compound `COc1ccc(N(CCOC(N)=O)S(=O)(=O)c2ccc3c(c2)c2ccccc2n3C)c(OC)n1.Cl`, the concentration in solution in series [1] (solubility) was 0.47 mg/mL.
As for `COc1ccc(N(CCN2CCOCC2)S(=O)(=O)c2ccc3c(c2)c2ccccc2n3C)c(OC)n1`, the IC50 was found to be 1060 nM in the series on HepG2 (Homo sapiens, HepG2, 48 h); 2.69 µM in the series on Bel-7402 (Homo sapiens, Bel-7402, 48 h); 4.65 µM with MCF7 (Homo sapiens, MCF7, 48 h).
Regarding `COc1ccc(N(C(=O)CCN2CCN(C)CC2)S(=O)(=O)c2ccc3c(c2)c2ccccc2n3C)c(OC)n1`, the IC50 was 70 nM in the series with HepG2 (Homo sapiens, HepG2, 48 h); 0.2 µM with Bel-7402 (Homo sapiens, Bel-7402, 48 h); 0.17 µM in the series with MCF7 (Homo sapiens, MCF7, 48 h).
As for `COc1ccc(N(CC(N)=O)S(=O)(=O)c2ccc3c(c2)c2ccccc2n3C)c(OC)n1`, the IC50 with HepG2 (Homo sapiens, HepG2, 48 h) came to 1970 nM; in the series on Bel-7402 (Homo sapiens, Bel-7402, 48 h) it was 3.56 µM; in the series with MCF7 (Homo sapiens, MCF7, 48 h) it was 4.28 µM.
For `COc1ccc(N(CCN2CCC3(CCN(C)CC3)C2)S(=O)(=O)c2ccc3c(c2)c2ccccc2n3C)c(OC)n1.Cl`, the solubility in series [1] is > 30 mg/mL.
As to `COc1ccc(N(CCn2ccnc2)S(=O)(=O)c2ccc3c(c2)c2ccccc2n3C)c(OC)n1`, the IC50 in the series on HepG2 (Homo sapiens, HepG2, 48 h) is 1250 nM; in the series with Bel-7402 (Homo sapiens, Bel-7402, 48 h) it was 2.59 µM; in the series on MCF7 (Homo sapiens, MCF7, 48 h), 4.6 µM.
As to `COc1ccc(N(C(=O)CCN2CCCCC2)S(=O)(=O)c2ccc3c(c2)c2ccccc2n3C)c(OC)n1.Cl`, the solubility in series [1] is 18.6 mg/mL.
For `COc1ccc(N(CCN)S(=O)(=O)c2ccc3c(c2)c2ccccc2n3C)c(OC)n1`, the IC50 with HepG2 (Homo sapiens, HepG2, 48 h) was 4750 nM; with Bel-7402 (Homo sapiens, Bel-7402, 48 h) it was 4.38 µM; in the series on MCF7 (Homo sapiens, MCF7, 48 h), 6.63 µM.
Consider `COc1ccc(N(CCN2CCCCC2)S(=O)(=O)c2ccc3c(c2)c2ccccc2n3C)c(OC)n1.Cl`, for which the solubility in series [1] was 0.58 mg/mL.
On the same count and under the same terms, the figure for `COc1ccc(N(CCN2CCC(N3CCCC3)CC2)S(=O)(=O)c2ccc3c(c2)c2ccccc2n3C)c(OC)n1.Cl` is > 30 mg/mL; for `COc1ccc(N(CCCN2CCC(N3CCCC3)CC2)S(=O)(=O)c2ccc3c(c2)c2ccccc2n3C)c(OC)n1.Cl` it is > 30 mg/mL.
Still for that read-out and setting: the figure for `COc1ccc(N(CCNC(=O)CN)S(=O)(=O)c2ccc3c(c2)c2ccccc2n3C)c(OC)n1.Cl.Cl` is > 30 mg/mL; for `COc1ccc(NS(=O)(=O)c2ccc3c(c2)c2ccc(O)cc2n3C)c(OC)n1.Cl` it is 0.0015 mg/mL.
`COc1ccc(N(CCO)S(=O)(=O)c2ccc3c(c2)c2ccccc2n3C)c(OC)n1`: the IC50 in the series on HepG2 (Homo sapiens, HepG2, 48 h) turned out to be 4040 nM; in the series with Bel-7402 (Homo sapiens, Bel-7402, 48 h) it was 4.13 µM; in the series on MCF7 (Homo sapiens, MCF7, 48 h) it was 1.43 µM.
Turning to `COc1ccc(N(CCN2CCCC2)S(=O)(=O)c2ccc3c(c2)c2ccccc2n3C)c(OC)n1.Cl`, in series [1], the solubility was 0.6 mg/mL.
With `COc1ccc(N(CCOC(=O)CN2CCN(C)CC2)S(=O)(=O)c2ccc3c(c2)c2ccccc2n3C)c(OC)n1`, the IC50 in the series on HepG2 (Homo sapiens, HepG2, 48 h) is 4300 nM; with Bel-7402 (Homo sapiens, Bel-7402, 48 h), 4.92 µM; in the series on MCF7 (Homo sapiens, MCF7, 48 h), 5.98 µM.
On to `COc1ccc(N(CCOP(=O)([O-])[O-])S(=O)(=O)c2ccc3c(c2)c2ccccc2n3C)c(OC)n1.Cl.[Na+].[Na+]`, for which the solubility in series [1] is 22.4 mg/mL.
Compound `COc1ccc(N(C(=O)CCN2CCN(C)CC2)S(=O)(=O)c2ccc3c(c2)c2ccccc2n3C)c(OC)n1.Cl` had a solubility in series [1] of 17.6 mg/mL.
For `COc1ccc(N(CCCn2ccnc2)S(=O)(=O)c2ccc3c(c2)c2ccccc2n3C)c(OC)n1`, the IC50 with HepG2 (Homo sapiens, HepG2, 48 h) was 1390 nM; with Bel-7402 (Homo sapiens, Bel-7402, 48 h) it was 4.64 µM; in the series on MCF7 (Homo sapiens, MCF7, 48 h) it was 4.53 µM.
On to `COc1ccc(N(CCNC(=O)CN)S(=O)(=O)c2ccc3c(c2)c2ccccc2n3C)c(OC)n1`, for which the IC50 in the series on HepG2 (Homo sapiens, HepG2, 48 h) stood at 1260 nM; in the series on Bel-7402 (Homo sapiens, Bel-7402, 48 h), 2.17 µM; in the series on MCF7 (Homo sapiens, MCF7, 48 h), 1.6 µM.
For `COc1ccc(N(CCCN2CCN(C)CC2)S(=O)(=O)c2ccc3c(c2)c2ccccc2n3C)c(OC)n1.Cl`, the concentration in solution in series [1] (solubility) was 20.6 mg/mL.
Turning to `COc1ccc(N(CCN2CCCCC2)S(=O)(=O)c2ccc3c(c2)c2ccccc2n3C)c(OC)n1`, the IC50 in the series with HepG2 (Homo sapiens, HepG2, 48 h) was 2050 nM; in the series on Bel-7402 (Homo sapiens, Bel-7402, 48 h), 4.99 µM; with MCF7 (Homo sapiens, MCF7, 48 h), 5.82 µM.
For the compound `COc1ccc(N(CC(N)=O)S(=O)(=O)c2ccc3c(c2)c2ccccc2n3C)c(OC)n1.Cl`, in series [1], the concentration in solution (solubility) came to 0.02 mg/mL.
Regarding `COc1ccc(N(CCOC(N)=O)S(=O)(=O)c2ccc3c(c2)c2ccccc2n3C)c(OC)n1`, the IC50 was 5110 nM in the series with HepG2 (Homo sapiens, HepG2, 48 h) and > 25 µM in the series with Bel-7402 (Homo sapiens, Bel-7402, 48 h).
For `COc1ccc(N(CCN2CCCC2)S(=O)(=O)c2ccc3c(c2)c2ccccc2n3C)c(OC)n1`, the IC50 came out at 3190 nM in the series on HepG2 (Homo sapiens, HepG2, 48 h); 4.98 µM in the series on Bel-7402 (Homo sapiens, Bel-7402, 48 h); 5.7 µM in the series with MCF7 (Homo sapiens, MCF7, 48 h).
As to `COc1ccc(N(CCN2CCOCC2)S(=O)(=O)c2ccc3c(c2)c2ccccc2n3C)c(OC)n1.Cl`, in series [1], the solubility turned out to be 0.44 mg/mL.
In series [1], `COc1ccc(N(CCN2CCN(C)CC2)S(=O)(=O)c2ccc3c(c2)c2ccccc2n3C)c(OC)n1.Cl` displayed a solubility of 25.7 mg/mL. Compared with the last compound, the solubility is about 58-fold higher.
On to `COc1ccc(N(CCOP(=O)(O)O)S(=O)(=O)c2ccc3c(c2)c2ccccc2n3C)c(OC)n1.Cl`, for which the concentration in solution in series [1] (solubility) was 1.75 mg/mL.
Still for that read-out and setting: the figure for `COc1ccc(N(CCN)S(=O)(=O)c2ccc3c(c2)c2ccccc2n3C)c(OC)n1.Cl` is 0.24 mg/mL.
In the case of `COc1ccc(N(CCN2CCSCC2)S(=O)(=O)c2ccc3c(c2)c2ccccc2n3C)c(OC)n1.Cl`, the solubility in series [1] is 0.27 mg/mL.
`COc1ccc(N(CCCN(C)C)S(=O)(=O)c2ccc3c(c2)c2ccccc2n3C)c(OC)n1.Cl` came in with a solubility in series [1] of 20.5 mg/mL.
For the compound `COc1ccc(N(CCCN(C)C)S(=O)(=O)c2ccc3c(c2)c2ccccc2n3C)c(OC)n1`, the IC50 in the series with HepG2 (Homo sapiens, HepG2, 48 h) was 2730 nM; with Bel-7402 (Homo sapiens, Bel-7402, 48 h), 10.8 µM; in the series on MCF7 (Homo sapiens, MCF7, 48 h), 7.15 µM.
Consider `COc1ccc(N(CCCN2CCC(N3CCCC3)CC2)S(=O)(=O)c2ccc3c(c2)c2ccccc2n3C)c(OC)n1`, for which the 50% inhibitory concentration (IC50) with HepG2 (Homo sapiens, HepG2, 48 h) amounted to 3890 nM; in the series with Bel-7402 (Homo sapiens, Bel-7402, 48 h) it was 6.24 µM; in the series with MCF7 (Homo sapiens, MCF7, 48 h) it was 15.8 µM.
On the same counts, the results for `COc1ccc(N(CCN2CCC3(CCN(C)CC3)C2)S(=O)(=O)c2ccc3c(c2)c2ccccc2n3C)c(OC)n1` are 2840 nM, 4.23 µM and 14.6 µM.
In the case of `COc1ccc(N(CCCN2CCN(C)CC2)S(=O)(=O)c2ccc3c(c2)c2ccccc2n3C)c(OC)n1`, the IC50 in the series on HepG2 (Homo sapiens, HepG2, 48 h) was found to be 5600 nM; in the series on Bel-7402 (Homo sapiens, Bel-7402, 48 h) it was 11.6 µM; in the series with MCF7 (Homo sapiens, MCF7, 48 h), 21 µM.

By IC50 is commonly meant the concentration needed to halve the response being measured. Higher therefore signals weaker potency. Broadly, the solubility is how much of the substance goes into solution per volume. Higher therefore signals a readily soluble substance.
